Assay results: paper PMC6651268, “The 3S Enantiomer Drives Enolase Inhibitory Activity in SF2312 and Its Analogues” (Molecules, 2019)
Read-outs that look alike come from different tables or passages of the source.

Experiments:
ENO2 [1] = molecular target: T1, ENO2 (Homo sapiens, UniProt P09104); experiment: X-ray structure of ENO2 crystals soaked with inhibitor; assay type: binding; set-up: His tag (only implied by NiNTA purification); made in house; settings: apo ENO2 crystals soaked with 2 mM compound; unbiased 2Fo-Fc omit map
Method: MethylSF2312 was co-crystallized with Human ENO2 to determine the configuration of the active compound in the active site. Apo crystals of ENO2 were prepared using published methods and were soaked in cryoprotectant containing the racemic mixture of MethylSF2312 for 16 h prior to freezing. The resulting co-crystal structure was resolved (Table 1), with four ENO2 homodimers in the asymmetric unit of the monoclinic crystal (PDB 5EU9).
Recombinant ENO2 protein was prepared using NiNTA affinity and size exclusion chromatography as described previously Apo crystals of Human Enolase 2 were prepared by streak seeding hanging drop solutions after mixing 0.5 μL 9.1 mg mL^−1 Enolase 2 with 0.5 μL reservoir solution (200 mM ammonium acetate, 100 mM Bis-Tris and 18–22% (w/v) PEG 3350). The hanging drops were incubated at room temperature above a 500 μL reservoir. Apo crystals were subsequently soaked overnight in 1 μL drops containing 100 mM Bis-Tis, 200 mM ammonium acetate, 32% (w/v) PEG 3350 at pH 6.5, supplemented with 2 mM racemate or pure enantiomer of MethylSF2312 compound, prior to flash freezing in liquid nitrogen. X-ray diffraction datasets were collected at 100 K using a wavelength of 1.11587 Å at the Advanced Light Source Beamline 8.3.1, equipped with ADSC Q315r detector. The diffraction images were indexed and integrated using iMOSFLM [19] and scaled using AIMLESS [20]. […]

ENO2 [2] = molecular target: T1, ENO2; experiment: Enolase activity, NADH-linked PK/LDH coupled fluorometric assay in native lysates of human cancer cells overexpressing ENO2; assay type: biochemical; set-up: expressed in transfected cells; host or cells: D423-MG (ENO1-deleted human glioma) with ectopic ENO2
Method: (§1) To compare the effects of isomeric mixtures of MethylSF2312 and SF2312 on Enolase activity, we measured the formation PEP coupled to the oxidation of NADH via LDH/PK on human cancer cells overexpressing ENO2 [4, 14]. […] Here, we favored the direct measurement of PEP absorbance, rather than of NADH, due to the high levels of endogenous NADH oxidase activity in bacterial lysates.
(§2) Native lysates of human cell lines were prepared using 20 mM Tris HCl, 1 mM EDTA, and 1 mM β-mercaptoethanol at pH 7.4 as described previously. Enolase activity was measured using two different methods, either by a fluorometric NADH-linked assay or a direct spectrophotometric assay via formation of PEP. In the fluorescent assay, enolase activity was measured via NADH oxidation in a pyruvate kinase–lactate dehydrogenase coupled assay as previously described. The assay is conducted in 10 mM KCl, 5 mM MgSO4, 100 mM triethanolamine at pH 7.4, with 400 µM NADH and 2 mM ADP. 2-Phosphoglycerate (2-PGA), pyruvate kinase (PK) and lactate dehydrogenase (LDH) are provided in excess, with the conversion of 2-PGA to PEP by enolase being rate limiting. PEP (with ADP) is a substrate of PK; pyruvate formed by this reaction is linked to NADH oxidation by LDH. Enolase activity is determined by measuring oxidation of NADH fluorescently by excitation at 340 nm and emission at 460 nm. The substrate concentration, if not otherwise indicated, was 5 mM 2-PGA. Fluorescence was measured using the Omega Fluorescence Plate Reader (BMG Labtech). Enolase activity was measured in native lysates of E. coli. Overnight grown saturated E. coli (DH5α) liquid culture was pelleted by centrifugation, washed and resuspended in 50 µL of lysis buffer which contains 150 mM NaCl, 50 mM Tris, 1mM EDTA, 2 mM DTT and 0.025% sodium azide. PMSF (10 mM stock solution) was then added to the lysate to make the final concentration 1 mM with 1% sodium deoxycholate. The suspension was incubated at 4 °C with constant mixing. The extract was centrifuged at 4 °C, 14,000 g for 15 min. Enolase activity in E. coli native lysates was measured directly by the appearance of PEP from 2-PGA via absorption at 240 nm. The assay medium was the same, except that all the auxiliary reagents (PK/LDH, NADH, ADP) are omitted. Assays were conducted in a 96-well plated format with the direct assay performed in UV-transmissible plates.

[3] = test system: D423 ENO1-deleted glioma cells; experiment: Proliferation assay of glioma cell lines by crystal violet staining; assay type: cell-based, human; settings: for toxicity against ENO1-deleted versus ENO1-intact glioma cells (in words): six days of treatment, D423 ENO1-deleted vs D423 ENO1-rescued and LN319 ENO1-WT
From the text: The cell line D423-MG was provided by Dr. Bigner. The 1p36 homozygous deletion in D423-MG spans from the CAMTA1 to SLC25A33 genes, including ENO1. The generation of isogenic ENO1 and ENO2 ectopically rescued lines was described previously. The LN319 cell line was obtained from Cell Bank of The Department of Genomic Medicine at M.D. Anderson. Cells were routinely cultured in high glucose, glutamine, and pyruvate containing Dulbecco’s modified Eagle’s medium (DMEM) with 10% fetal bovine serum (FBS).
Cell proliferation of glioma cell lines was assayed through crystal violet staining. Cells were seeded at 1500 cells/well in 96-well plates, and after 24 h, were treated with dilution series of enolase inhibitors, with each treatment concentration in duplicate wells. At the indicated time, cells were fixed with 10% formalin and stained with crystal violet. Dye extraction was performed using 10% acetic acid solution, and absorbance was read at 595 nm.

ENO1 = molecular target: T2, ENO1 (Homo sapiens, UniProt P06733); experiment: Enolase activity, NADH-linked PK/LDH coupled fluorometric assay in native lysates of human cancer cells overexpressing ENO1; assay type: biochemical; settings: for IC50: lysates of D423 cells overexpressing ENO1
T2 construct: expressed in transfected cells; host or cells: D423-MG (ENO1-deleted human glioma) with ectopic ENO1
Method: We then determined Enolase inhibitory activity of (3R)-P1 and (3S)-P2 derived MethylSF2312 in native lysates from human cancer cells and E. coli overexpressing ENO1 and ENO2.
as §2, with “Assays were conducted in a 96-well plated format with the direct assay performed in UV-transmissible plates.” left out

E. coli (DH5α) = experiment: Kirby Bauer disc diffusion antibiotic sensitivity testing; assay type: cell-based, Escherichia coli; settings: for zone of inhibition at 35 µg/disc: Escherichia coli, read-out: clear zone of growth inhibition
Method: Finally, the antibiotic activities of SF2312 and MethylSF2312 were compared in E. coli using the disc diffusion method. A 7 mm filter paper disc imbued with 35 µg of either SF2312 or MethylSF2312 was placed on an E. coli lawn on Muller-Hinton Agar. […] Of note, growth inhibition was only observed with the addition of glucose-6-phosphate (G6P).
Kirby Bauer disc diffusion antibiotic sensitivity testing was performed on Mueller Hinton II Agar (BD #221275) or BBL™ Columbia Agar with 5% Sheep Blood (BD #221165). An overnight overnight-grown saturated E. coli (DH5α) liquid culture was diluted (1:50) in water and streaked on the agar plate to form a bacterial lawn. D-Glucose-6-phosphate (Sigma #G7250) was made in 100 mM stock solution and added to the diluted bacteria to achieve 2 mM final concentration right before streaking the plate. A 7 mm Whatman™ 3MM Chr Chromatography filter paper disc (Whatman # 3030-6189) was imbued with 7 µL of an aqueous solution of inhibitor, placed on the streaked agar plate and incubated overnight at 37 °C.

[4] = molecular target: T3, Enolase in Escherichia coli lysates (Escherichia coli, UniProt P0A6P9); experiment: Enolase activity in E. coli native lysates, direct measurement of PEP formation at 240 nm; assay type: biochemical
T3 construct: Overnight grown saturated E. coli (DH5α) liquid culture was pelleted by centrifugation; endogenous in cells; host or cells: E. coli DH5α
Method: as §1
as §2, with “The extract was centrifuged at 4 °C, 14,000 g for 15 min.” left out, “The assay medium was the same, except that all the auxiliary reagents (PK/LDH, NADH, ADP) are omitted. Assays were conducted in a 96-well plated format with the direct assay performed in UV-transmissible plates.” left out

[5] = lysates of human cancer cells (D423) overexpressing ENO2, 5 mM 2-PGA, read-out: IC50 for ENO2

T1 sequence (P09104 whole entry): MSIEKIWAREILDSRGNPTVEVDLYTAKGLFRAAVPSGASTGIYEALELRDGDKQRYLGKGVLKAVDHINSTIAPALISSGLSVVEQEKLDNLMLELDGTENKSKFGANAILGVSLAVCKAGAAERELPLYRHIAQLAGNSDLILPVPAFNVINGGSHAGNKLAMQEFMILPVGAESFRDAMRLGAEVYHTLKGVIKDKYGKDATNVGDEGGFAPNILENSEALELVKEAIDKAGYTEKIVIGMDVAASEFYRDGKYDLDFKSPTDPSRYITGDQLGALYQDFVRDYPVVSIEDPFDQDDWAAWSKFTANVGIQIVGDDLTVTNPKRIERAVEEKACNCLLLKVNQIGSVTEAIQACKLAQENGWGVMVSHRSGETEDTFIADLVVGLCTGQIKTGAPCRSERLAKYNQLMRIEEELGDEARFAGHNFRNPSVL
T2 sequence (P06733 whole entry): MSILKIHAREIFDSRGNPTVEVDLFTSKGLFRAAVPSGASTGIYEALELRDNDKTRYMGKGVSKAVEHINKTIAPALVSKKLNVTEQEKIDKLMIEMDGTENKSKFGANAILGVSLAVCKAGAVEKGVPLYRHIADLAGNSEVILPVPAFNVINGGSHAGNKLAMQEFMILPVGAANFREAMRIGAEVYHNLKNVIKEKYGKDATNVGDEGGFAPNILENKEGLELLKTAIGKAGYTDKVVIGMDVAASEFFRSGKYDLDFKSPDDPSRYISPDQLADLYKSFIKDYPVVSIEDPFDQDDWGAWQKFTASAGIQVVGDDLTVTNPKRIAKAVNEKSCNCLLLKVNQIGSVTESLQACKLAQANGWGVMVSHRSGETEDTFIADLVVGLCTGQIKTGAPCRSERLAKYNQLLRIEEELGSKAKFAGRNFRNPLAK
T3 sequence (P0A6P9 whole entry): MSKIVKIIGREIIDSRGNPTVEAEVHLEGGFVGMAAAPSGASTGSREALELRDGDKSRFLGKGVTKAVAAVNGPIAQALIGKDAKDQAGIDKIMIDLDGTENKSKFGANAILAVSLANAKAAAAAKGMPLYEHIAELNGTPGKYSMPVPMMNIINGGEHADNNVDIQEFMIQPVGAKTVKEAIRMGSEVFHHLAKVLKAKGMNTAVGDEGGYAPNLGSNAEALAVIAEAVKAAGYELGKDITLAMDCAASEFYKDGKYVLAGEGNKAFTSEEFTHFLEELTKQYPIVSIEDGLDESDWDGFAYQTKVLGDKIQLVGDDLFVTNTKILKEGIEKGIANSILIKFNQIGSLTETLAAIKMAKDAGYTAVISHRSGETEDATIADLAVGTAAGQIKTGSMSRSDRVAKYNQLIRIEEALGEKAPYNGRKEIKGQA

`C[C@@]1(P(=O)(O)O)CC(O)N(O)C1=O` (stereo partly drawn) [(3R)-MethylSF2312] was tested, and the “occupancy of the ENO2 active site in the electron density map (in words)” value (ENO2 [1]) was “no evidence of occupancy”, the IC50 (ENO2 [2]; lysates of D423 cells overexpressing ENO2, read-out: IC50 for ENO2) was roughly 15 µM and the “toxicity towards ENO1-deleted glioma cells (in words)” value ([3]; even at 400 µM, D423 ENO1-deleted, 7 days) was “minimal toxicity”. For the same molecule, the “fold less potent than (3S)-MethylSF2312” value (ENO1; ENO1, ratio of IC50 values) was 2000 fold and the IC50 (ENO1) was roughly 15 µM.

For `C[C@]1(P(=O)(O)O)CC(O)N(O)C1=O` (stereo partly drawn) [(3S)-MethylSF2312], the “occupancy of the ENO2 active site in the electron density map (in words)” value (ENO2 [1]) was “occupied in 3S,5S-configuration”, the IC50 (ENO2 [2]; [5]) was roughly 0.01 µM and the “concentration exhibiting toxicity to ENO1-deleted glioma cells” value ([3]; D423 ENO1-deleted, 7 days, crystal violet) was ~ 2 µM. The IC50 (ENO1) was roughly 0.01 µM, the “zone of inhibition (in words)” value (E. coli (DH5α); 35 µg per disc, Muller Hinton Agar and Blood Agar, with G6P, overnight 37 °C) was “distinct zone of inhibition” and the “fold greater Enolase inhibitory potency compared to (3R)-MethylSF2312” value ([4]; E. coli lysates) was ~ 2000 fold.

In the case of `CC1(P(=O)(O)O)CC(O)N(O)C1=O` (stereo not shown) [MethylSF2312, (1,5-dihydroxy-3-methyl-2-oxopyrrolidin-3-yl)phosphonic acid], the IC50 (ENO2 [2]; [5]) is reported as roughly 0.01 µM, the “toxicity against ENO1-deleted versus ENO1-intact glioma cells (in words)” value [3] is reported as “selective toxicity” and the zone of inhibition at 35 µg/disc (E. coli (DH5α); 7 mm disc with 35 µg, Muller-Hinton Agar, overnight, with glucose-6-phosphate) is reported as roughly 24 mm. It also gave an IC50 ([4]; direct PEP absorbance at 240 nm, read-out: IC50, Enolase in E. coli lysates) of roughly 0.01 µM.

With `O=C1C(P(=O)(O)O)CC(O)N1O` (stereo not shown) [SF2312, (1,5-dihydroxy-2-oxopyrrolidin-3-yl)phosphonic acid] the IC50 (ENO2 [2]) was roughly 0.01 µM, the “toxicity against ENO1-deleted versus ENO1-intact glioma cells (in words)” value [3] was “selective toxicity” and the zone of inhibition at 35 µg/disc (E. coli (DH5α)) was roughly 24 mm. The IC50 [4] was roughly 0.01 µM.
